System: WHHLMI rabbit
Assay: Xanthomatosis-inhibiting activity in rabbit model (extent of limb xanthoma at digital joints)
Type: in vivo
Details: male WHHLMI rabbit, digital joints of forelegs and hind legs; for Distribution of Severity: − (no occurrence), count of limb xanthoma assessments: control 2; for Distribution of Severity: +++ (mass), count of limb xanthoma assessments: control 4; for Distribution of Severity: + (dotting of granule), count of limb xanthoma assessments: control 8; for Distribution of Severity: ++ (scattering), count of limb xanthoma assessments: control 26
Protocol: A vehicle or the test compound 1 was orally administered to a 2 months old male WHHLMI rabbit (10 to 11 animals/group) in an amount of 100, 200 mg/kg in a mixed diet for 32 weeks. After the administration for 32 weeks, xanthoma was evaluated at the digital joints of forelegs and hind legs (Table 1). The extent of limb xanthoma was assessed by classifying into four stages: no occurrence (−), dotting of granule (+), scattering (++), mass (+++)

[1] = 100 mg/kg orally in mixed diet for 32 weeks
[2] = 200 mg/kg orally in mixed diet for 32 weeks

## COc1cccc([C@H]2O[C@H](CC(=O)N3CCC(CC(=O)O)CC3)C(=O)N(CC(C)(C)COC(C)=O)c3ccc(Cl)cc32)c1OC [Test compound 1, N-{[(3R,5S)-1-(3-acetoxy-2,2-dimethylpropyl)-7-chloro-5-(2,3-dimethoxyphenyl)-2-oxo-1,2,3,5-tetrahydro-4,1-benzoxazepin-3-yl}acetyl}piperidine-4-acetic acid]
[1]
  Distribution of Severity: − (no occurrence), count of limb xanthoma assessments: 4
  Distribution of Severity: +++ (mass), count of limb xanthoma assessments: 0
  Distribution of Severity: + (dotting of granule), count of limb xanthoma assessments: 13
  Distribution of Severity: ++ (scattering), count of limb xanthoma assessments: 27
[2]
  Distribution of Severity: − (no occurrence), count of limb xanthoma assessments: 0
  Distribution of Severity: +++ (mass), count of limb xanthoma assessments: 0
  Distribution of Severity: + (dotting of granule), count of limb xanthoma assessments: 29
  Distribution of Severity: ++ (scattering), count of limb xanthoma assessments: 15

Reference: patent publication US20090082333A1, “REMEDY FOR XANTHOMA” (NATIONAL UNIVERSITY CORPORATION KOBE UNIVERSITY, priority 2005, published 2009)
